Source: patent publication US20070142306A1, “Strontium-based complexes, pharmaceutical compositions and dietetic products” (MEDESIS PHARMA SA, priority 2003, published 2007)
Several values for one entry are separate records, joined by “and”; a condition that tells them apart may be missing. Equal entries are not always repeated. One block for each molecule: values may come before it.

How the values were obtained:
[1] = tested on: female Wistar rats; assay: Femoral head (epiphyseal) diameter / bone growth after 21 days rectal treatment; assay type: in vivo, rat
Experimental: (§1) Administration to female Wistar rats weighing 200 g.
Number of animals per group: 6 and 8.
Text complex: NP05 (composition produced according to the invention, in which only the quantity of strontium varies).
(§2) Volume of administration: 2 ml/kg.
(§3) Route of administration: Rectal route.
(§4) Dose frequency: Once a day—every 24 hours.
(§5) Treatment duration: 21 days.
(§6) The animals were sacrificed and the femoral bones were removed, cleaned of their tendinous and muscular attachments, then frozen.
The femoral epiphyseal diameter was measured.

[2] = Assay of strontium in femoral bones by atomic absorption spectrometry; assay type: in vivo, rat; conditions: 3 weeks treatment, 68.2 mg/kg/d
Experimental: as §1, §2, §3, §4, §5, §6
Strontium was then assayed in the bones by atomic absorption spectrometry.
The assay of strontium in bone was carried out.

[3] = tested on: osteoblast; conditions: cited from earlier work
[4] = tested on: osteoclast; conditions: cited from earlier work
[5] = tested on: rat model; conditions: administration for 8 weeks; cited from earlier work
[6] = tested on: postmenopausal women; conditions: 2 mg per day, two years; cited from earlier work
[7] = tested on: animal; conditions: cited from earlier work
[8] = tested on: humans; conditions: in humans; cited from earlier work

strontium incorporation in bone compared with the controls [2]: 4
SMILES: [Cl-].[Cl-].[Sr+2] [Strontium chloride, strontium chloride]
effect on bone growth ([1]; 3 weeks treatment, compared with control animals (NP05 also with the strontium chloride group)): no effect
Diameter of femoral head, Mean ([1]; group mean, 68.2 mg/kg strontium metal, rectal, 21 days): 4.01 millimeters
Diameter of femoral head, Femur 1 ([1]; individual rats, 68.2 mg/kg strontium metal, rectal, once a day, 21 days): 4 millimeters
Diameter of femoral head, Femur 2 ([1]; individual rats, 68.2 mg/kg strontium metal, rectal, once a day, 21 days, 68.2 mg/kg): 4 millimeters (7×) and 4.1 millimeters
osteoblast proliferation [3]: stimulation
osteoclast multiplication [4]: inhibition
minimum dose stimulating bone growth [5]: 68.2 mg of strontium (metal)

SMILES: N#Cc1c(N(CC(=O)[O-])CC(=O)[O-])sc(C(=O)[O-])c1CC(=O)[O-].[Sr+2].[Sr+2] [strontium ranelate]
osteoblast proliferation [3]: stimulation
osteoclast multiplication [4]: inhibition
minimum dose stimulating bone growth [5]: 68.2 mg of strontium (metal)
bone alkaline phosphatase (marker of bone formation) [6]: significantly increased
bone mineral density in the lumbar spine [6]: significant increase
marker of bone resorption [6]: decreased
dose required for therapeutic activity in animal studies ([7]; as strontium ranelate, corresponding to 68.2 mg of strontium metal): 200 mg per day
dose causing toxic effects (osteomalacic bone lysis) ([7]; ranelate dose, four times the active dose): above 800 mg per day
amount necessary to obtain therapeutic activity [8]: 2 g/day
